Experimental data from patent US20160229839A1, “Factor XIa Inhibitors” (Merck Sharp & Dohme Corp., priority 2013, published 2016).

target: T1, purified human Factor XIa (Homo sapiens, UniProt P03951); experiment: Factor XIa Assay (fluorogenic substrate Z-Gly-Pro-Arg-AFC); assay type: biochemical; details: purified human Factor XIa 40 pM; Z-Gly-Pro-Arg-AFC 100 μM; 50 mM HEPES pH 7.4; read-out: hFXIa Ki (nM), Factor XIa inhibition
T1 construct: purified human Factor XIa; purchased Sekisui Diagnostics
Experimental: The effectiveness of compound of the present invention as inhibitors of Coagulation Factor XIa can be determined using a relevant purified serine protease, and an appropriate synthetic substrate. The rate of hydrolysis of the chromogenic or fluorogenic substrate by the relevant serine protease was measured both in the absence and presence of compounds of the present invention. Assays were conducted at room temperature or at 37° C. […] A decrease in the rate of fluorescence change in the presence of inhibitor is indicative of enzyme inhibition. Such methods are known to one skilled in the art. The results of this assay are expressed as the inhibitory constant, Ki.
Factor XIa determinations were made in 50 mM HEPES buffer at pH 7.4 containing 150 mM NaCl, 5 mM CaCl2, and 0.1% PEG 8000 (polyethylene glycol; J T Baker or Fisher Scientific). Determinations were made using purified human Factor XIa at a final concentration of 40 pM (Sekisui Diagnostics) and he synthetic substrate, Z-Gly-Pro-Arg-AFC, TFA salt (Sigma #C0980) at a concentration of 100 μM.
Activity assays were performed by diluting a stock solution of substrate at least tenfold to a final concentration ≦0.1 Km into a solution containing enzyme or enzyme equilibrated with inhibitor. Times required to achieve equilibration between enzyme and inhibitor were determined in control experiments. Initial velocities of product formation in the absence (Vo) or presence of inhibitor (Vi) were measured. Assuming competitive inhibition, and that unity is negligible compared Km/[S], [I]/e, and [I]/e (where [S], [I], and e respectively represent the total concentrations, of substrate, inhibitor and enzyme), the equilibrium constant (Ki) for dissociation of the inhibitor from the enzyme can be obtained from the dependence of Vo/Vi on [I] shown in the following equation.

T1 sequence (P03951 388-625 limits assumed): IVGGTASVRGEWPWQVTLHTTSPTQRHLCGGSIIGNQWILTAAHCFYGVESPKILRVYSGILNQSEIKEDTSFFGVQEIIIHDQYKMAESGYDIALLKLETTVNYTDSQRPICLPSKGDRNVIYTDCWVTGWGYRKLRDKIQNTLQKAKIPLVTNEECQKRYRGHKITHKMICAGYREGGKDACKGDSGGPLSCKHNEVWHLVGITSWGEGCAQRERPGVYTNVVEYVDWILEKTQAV
T1 sequence (P03951 19-387 partner limits assumed): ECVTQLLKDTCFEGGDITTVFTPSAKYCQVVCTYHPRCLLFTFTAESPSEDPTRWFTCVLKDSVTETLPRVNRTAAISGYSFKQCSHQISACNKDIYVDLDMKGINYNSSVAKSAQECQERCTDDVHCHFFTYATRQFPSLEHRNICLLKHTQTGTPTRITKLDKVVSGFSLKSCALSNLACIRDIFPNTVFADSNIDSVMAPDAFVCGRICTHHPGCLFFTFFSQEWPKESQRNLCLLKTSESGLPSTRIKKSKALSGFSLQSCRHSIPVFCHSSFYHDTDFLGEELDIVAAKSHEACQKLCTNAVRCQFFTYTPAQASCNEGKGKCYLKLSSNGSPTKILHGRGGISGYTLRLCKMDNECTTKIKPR

Structure (SMILES) | Ki
N#Cc1cccc(-c2c[nH]c(C3C(c4ccccc4)CCCN3C(=O)/C=C/c3cc(Cl)ccc3-n3cnnn3)n2)c1 (stereo not shown) [Example 1-27, (E)-3-(2-(1-(3-(5-chloro-2-(1H-tetrazol-1-yl)phenyl)acryloyl)-3-phenylpiperidin-2-yl)-1H-imidazol-4-yl)benzonitrile] | > 10000 nM
COc1cccc(-c2c[nH]c(C3C(c4ccccc4)CCCN3C(=O)/C=C/c3cc(Cl)ccc3-n3cnnn3)n2)c1 (stereo not shown) [Example 1-28, (E)-3-(5-chloro-2-(1H-tetrazol-1-yl)phenyl)-1-(2-(4-(3-methoxyphenyl)-1H-imidazol-2-yl)-3-phenylpiperidin-1-yl)prop-2-en-1-one] | > 10000 nM
CS(=O)(=O)c1ccc(-c2c[nH]c(C3C(c4ccccc4)CCCN3C(=O)/C=C/c3cc(Cl)ccc3-n3cnnn3)n2)cc1 (stereo not shown) [Example 1-29, (E)-3-(5-chloro-2-(1H-tetrazol-1-yl)phenyl)-1-(2-(4-(4-(methylsulfonyl)phenyl)-1H-imidazol-2-yl)-3-phenylpiperidin-1-yl)prop-2-en-1-one] | > 10000 nM
O=C(/C=C/c1cc(Cl)ccc1-n1cnnn1)N1CCCC(c2ccccc2)C1c1nc(-c2ccc(C(F)(F)F)cc2)c[nH]1 (stereo not shown) [Example 1-30, (E)-3-(5-chloro-2-(1H-tetrazol-1-yl)phenyl)-1-(3-phenyl-2-(4-(4-(trifluoromethyl)phenyl)-1H-imidazol-2-yl)piperidin-1-yl)prop-2-en-1-one] | > 10000 nM
O=C(/C=C/c1cc(Cl)ccc1-n1cnnn1)N1CCCC(c2ccccc2)C1c1nc(-c2cccc(C(F)(F)F)c2)c[nH]1 (stereo not shown) [Example 1-31, (E)-3-(5-chloro-2-(1H-tetrazol-1-yl)phenyl)-1-(3-phenyl-2-(4-(3-(tifluoromethyl)phenyl)-1H-imidazol-2-yl)piperidin-1-yl)prop-2-en-1-one] | > 10000 nM
O=C(O)c1ccc(NC(=O)C2C(c3ccc(C(F)(F)F)cc3)CCCN2C(=O)/C=C/c2cc(Cl)ccc2-n2cnnn2)cc1 (stereo not shown) [Example 1-32, (E)-4-(1-(3-(5-chloro-2-(1H-tetrazol-1-yl)phenyl)acryloyl)-3-(4-(trifluoromethyl)phenyl)piperidine-2-carboxamido)benzoic acid] | 218 nM
Nc1ccc(C2CCCN(C(=O)/C=C/c3cc(Cl)ccc3-n3cnnn3)C2C(=O)Nc2ccc(C(=O)O)cc2)cc1 (stereo not shown) [Example 1-33, (E)-4-(3-(4-aminophenyl)-1-(3-(5-chloro-2-(1H-tetrazol-1-yl)phenyl)acryloyl)piperidine-2-carboxamido)benzoic] | 46.7 nM
O=C(/C=C/c1cc(Cl)ccc1-n1cnnn1)Nc1ccc(C2CCCN(C(=O)/C=C/c3cc(Cl)ccc3-n3cnnn3)C2C(=O)Nc2ccc(C(=O)O)cc2)cc1 (stereo not shown) [Example 1-34, 4-(3-(4-((E)-3-(5-chloro-2-(1H-tetrazol-1-yl)phenyl)acrylamido)phenyl)-1-((E)-3-(5-chloro-2-(1H-tetrazol-1-yl)phenyl)acryloyl)piperidine-2-carboxamido)benzoic acid] | 24.9 nM
O=C(O)c1ccc(NC(=O)C2C(c3ccc(OC(F)(F)F)cc3)CCCN2C(=O)/C=C/c2cc(Cl)ccc2-n2cnnn2)cc1 (stereo not shown) [Example 1-35, (E)-4-(1-(3-(5-chloro-2-(1H-tetrazol-1-yl)phenyl)acryloyl)-3-(4-(tifluoromethoxy)phenyl)piperidine-2-carboxamido)benzoic acid] | 122 nM
NC(=O)c1ccc(C2CCCN(C(=O)/C=C/c3cc(Cl)ccc3-n3cnnn3)C2C(=O)Nc2ccc(C(=O)O)cc2)cc1 (stereo not shown) [Example 1-36, (E)-4-(3-(4-carbamoylphenyl)-1-(3-(5-chloro-2-(1H-tetrazol-1-yl)phenyl)acryloyl)piperidine-2-carboxamido)benzoic acid] | 36.2 nM
Cc1cc(C2CCCN(C(=O)/C=C/c3cc(Cl)ccc3-n3cnnn3)C2C(=O)Nc2ccc(C(=O)O)cc2)ccc1F (stereo not shown) [Example 1-37, (E)-4-(1-(3-(5-chloro-2-(1H-tetrazol-1-yl)phenyl)acryloyl)-3-(4-fluoro-3-methylphenyl)piperidine-2-carboxamido)benzoic acid] | 51.5 nM
COC(=O)Nc1ccc(-c2c[nH]c(C3C(c4ccccc4)CCCN3C(=O)/C=C/c3cc(Cl)ccc3-n3cnnn3)n2)cc1 (stereo not shown) [Example 1-38, (E)-methyl (4-(2-(1-(3-(5-chloro-2-(1H-tetrazol-1-yl)phenyl)acryloyl)-3-phenylpiperidin-2-yl)-1H-imidazol-4-yl)phenyl)carbamate] | 90 nM
NCC1CCC(C(=O)N2CCCC(c3ccccc3)C2C(=O)Nc2ccc(C(=O)O)cc2)CC1 (stereo not shown) [Example 1-39, (4-(2-((4-carboxyphenyl)carbamoyl)-3-phenylpiperidine-1-carbonyl)cyclohexyl)methanaminium 2,2,2-trifluoroacetate] | 45.6 nM
COC(=O)c1ccc(-c2c[nH]c(C3C(c4ccccc4)CCCN3C(=O)/C=C/c3cc(Cl)ccc3-n3cnnn3)n2)cc1 (stereo not shown) [Example 1-40, (E)-methyl 4-(2-(1-(3-(5-chloro-2-(1H-tetrazol-1-yl)phenyl)acryloyl)-3-phenylpiperidin-2-yl)-1H-imidazol-4-yl)benzoate] | > 10000 nM
O=C(/C=C/c1cc(Cl)ccc1-n1cnnn1)N1CCCC(c2ccccc2)C1c1nc(-c2ccccn2)c[nH]1 (stereo not shown) [Example 1-41, (E)-3-(5-chloro-2-(1H-tetrazol-1-yl)phenyl)-1-(3-phenyl-2-(4-(pyridin-2-yl)-1H-imidazol-2-yl)piperidin-1-yl)prop-2-en-1-one] | 3270 nM
O=C(/C=C/c1cc(Cl)ccc1-n1cnnn1)N1CCCC(c2ccccc2)C1c1nc(-c2ccncc2)c[nH]1 (stereo not shown) [Example 1-42, (E)-3-(5-chloro-2-(1H-tetrazol-1-yl)phenyl)-1-(3-phenyl-2-(4-(pyridin-4-yl)-1H-imidazol-2-yl)piperidin-1-yl)prop-2-en-1-one] | 237 nM
NCc1ccc(C(=O)N2CCCC(c3ccccc3)C2C(=O)Nc2ccc(C(=O)O)cc2)cc1C1CC1 (stereo not shown) [Example 1-43, (4-(2-((4-carboxyphenyl)carbamoyl)-3-phenylpiperidine-1-carbonyl)-2-cyclopropylphenyl)methanaminium 2,2,2-trifluoroacetate] | 169 nM
COC(=O)Nc1ccc(-c2c[nH]c(C3C(c4ccccc4)CCCN3C(=O)/C=C/c3cc(Cl)ccc3-n3cnnn3)n2)c(Br)c1 (stereo not shown) [Example 1-44, (E)-methyl (3-bromo-4-(2-(1-(3-(5-chloro-2-(1H-tetrazol-1-yl)phenyl)acryloyl)-3-phenylpiperidin-2-yl)-1H-imidazol-4-yl)phenyl)carbamate] | 411 nM
O=C(O)c1ccc(-c2c[nH]c(C3C(c4ccccc4)CCCN3C(=O)/C=C/c3cc(Cl)ccc3-n3cnnn3)n2)cc1 (stereo not shown) [Example 1-45, (E)-4-(2-(1-(3-(5-chloro-2-(1H-tetrazol-1-yl)phenyl)acryloyl)-3-phenylpiperidin-2-yl)-1H-imidazol-4-yl)benzoic acid] | 2820 nM
COC(=O)Nc1ccc(-c2c[nH]c(C3C(c4ccccc4)CCCN3C(=O)/C=C/c3cc(Cl)ccc3-n3cnnn3)n2)cc1 (stereo not shown) [Example 1-46, (E)-methyl (4-(2-(1-(3-(5-chloro-2-(1H-tetrazol-1-yl)phenyl)acryloyl)-3-phenylpiperidin-2-yl)-1H-imidazol-4-yl)phenyl)carbamate] | 65.5 nM
COC(=O)Nc1ccc(-c2c[nH]c(C3C(c4ccccc4)CCCN3C(=O)/C=C/c3cc(Cl)ccc3-n3cnnn3)n2)cc1 (stereo not shown) [Example 1-47, (E)-methyl (4-(2-(1-(3-(5-chloro-2-(1H-tetrazol-1-yl)phenyl)acryloyl)-3-phenylpiperidin-2-yl)-1H-imidazol-4-yl)phenyl)carbamate] | > 10000 nM
COC(=O)Nc1ccc(-c2c[nH]c(C3C(c4ccccc4)CCCN3C(=O)/C=C/c3cc(Cl)ccc3-n3cnnn3)n2)c(N)c1 (stereo not shown) [Example 1-48, (E)-methyl (3-amino-4-(2-(1-(3-(5-chloro-2-(1H-tetrazol-1-yl)phenyl)acryloyl)-3-phenylpiperidin-2-yl)-1H-imidazol-4-yl)phenyl)carbamate] | 103 nM
NCC1CCC(C(=O)N2CCCC(c3ccccc3)C2C(=O)Nc2ccc(C(=O)O)cc2)CC1 (stereo not shown) [Example 1-49, 4-(1-(4-(aminomethyl)cyclohexanecarbonyl)-3-phenylpiperidine-2-carboxamido)benzoic acid] | 916 nM
NCC1CCC(C(=O)N2CCCC(c3ccccc3)C2C(=O)Nc2ccc(C(=O)O)cc2)CC1 (stereo not shown) [Example 1-50, 4-(1-(4-(aminomethyl)cyclohexanecarbonyl)-3-phenylpiperidine-2-carboxamido)benzoic acid] | 72.8 nM
CCCC(=O)Nc1cc(NC(=O)OC)ccc1-c1c[nH]c(C2C(c3ccccc3)CCCN2C(=O)/C=C/c2cc(Cl)ccc2-n2cnnn2)n1 (stereo not shown) [Example 1-51, (E)-methyl (3-butyramido-4-(2-(1-(3-(5-chloro-2-(1H-tetrazol-1-yl)phenyl)acryloyl)-3-phenylpiperidin-2-yl)-1H-imidazol-4-yl)phenyl)carbamate] | > 10000 nM
